Laboratory results reported in ChEMBL document CHEMBL1201862, “PubChem BioAssay data set” (2004).
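How tested: cells in 96-well plates exposed to compound for 48 hours at five concentrations. At the GI50, growth is halved.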 The source made the active and inactive calls. Rule as the data show it: active = GI50 up to about 1.1 µM and inactive = higher.

Columns and labels:
Test in all cases: DTP human tumour cell line panel, 48 h
[1] = system: SK-OV-3
[2] = system: MOLT-4
[3] = system: RPMI-8226
[4] = system: KM12
[5] = system: NCI-H522
[6] = system: SK-MEL-28
[7] = system: SN12C
[8] = system: M14
[9] = system: HCC 2998
[10] = system: CAKI-1
[11] = system: SNB-75
[12] = system: HOP-62
[13] = system: MDA-N
[14] = system: SF-539
[15] = system: ACHN
[16] = system: HCT-116
[17] = system: PC-3
[18] = system: K562
[19] = system: SF-295

Row | Compound | GI50 [1] | GI50 [2] | GI50 [3] | GI50 [4] | GI50 [5] | GI50 [6] | GI50 [7] | GI50 [8] | GI50 [9] | GI50 [10] | GI50 [11] | GI50 [12] | GI50 [13] | GI50 [14] | GI50 [15] | GI50 [16] | GI50 [17] | GI50 [18] | GI50 [19]
1 | CS(=O)(=O)N1CC(CCl)c2ccc(NO)cc21 (stereo unspecified) | 18.7 µM (inactive) | 3.48 µM (inactive) | 4.5 µM (inactive) | 14.6 µM (inactive) | 4.17 µM (inactive) | 19.1 µM (inactive) | 15.3 µM (inactive) | 16.2 µM (inactive) | 14.4 µM (inactive) | 12.6 µM (inactive) | 1.77 µM (inactive) | 17.7 µM (inactive) | 16.9 µM (inactive) | 10.2 µM (inactive) | 7.94 µM (inactive) | 14.7 µM (inactive) | 12 µM (inactive) | 2.88 µM (inactive) | 20 µM (inactive)
2 | C=C(c1ccccc1)c1ccccc1-c1cc(-c2ccccc2)cc(-c2ccccc2)n1 |  | > 100 µM (inactive) | 58.1 µM (inactive) | > 100 µM (inactive) | 28.4 µM (inactive) | > 100 µM (inactive) | > 100 µM (inactive) | > 100 µM (inactive) | 98.6 µM (inactive) | > 100 µM (inactive) | > 100 µM (inactive) | > 100 µM (inactive) | > 100 µM (inactive) | > 100 µM (inactive) | > 100 µM (inactive) | 65.8 µM (inactive) | > 100 µM (inactive) | 53.6 µM (inactive) | > 100 µM (inactive)
3 | Cc1cnc2c(c1)C(=O)C1=C(C2=O)C2OC(=O)CC2OC1(C)C (stereo unspecified) | 1.35 µM (inactive) | 0.0776 µM (active) | 0.188 µM (active) | 0.431 µM (active) | 0.0525 µM (active) | 0.684 µM (active) | 0.161 µM (active) | 0.254 µM (active) | 0.248 µM (active) | 0.12 µM (active) | 1.69 µM (inactive) | 1.18 µM (inactive) | 0.281 µM (active) | 0.237 µM (active) | 0.107 µM (active) | 0.0681 µM (active) | 0.16 µM (active) | 0.0209 µM (active) | 1.25 µM (inactive)
4 | Nc1ccc2c(c1)C(=O)c1c(F)cccc1-2 | 85.7 µM (inactive) |  | 20.4 µM (inactive) | 40.5 µM (inactive) | 34.5 µM (inactive) | 34.2 µM (inactive) | 39.1 µM (inactive) | 50.4 µM (inactive) | 40 µM (inactive) | 23.6 µM (inactive) | 10.4 µM (inactive) | 30.3 µM (inactive) | 93.3 µM (inactive) | 24.5 µM (inactive) | 34.1 µM (inactive) | 30.5 µM (inactive) | 31.2 µM (inactive) |  | 46 µM (inactive)
5 | C=C1C(=O)O[C@H]2[C@@H](O)[C@H](C)CCC/C(C)=C/CC[C@@]3(C)O[C@@H]3C[C@@H]12 | 18.5 µM (inactive) | 2.29 µM (inactive) | 8.38 µM (inactive) | 16.8 µM (inactive) | 2.68 µM (inactive) | 13.7 µM (inactive) | 5.77 µM (inactive) | 3.94 µM (inactive) | 13.2 µM (inactive) | 2.33 µM (inactive) | 15.1 µM (inactive) | 22.3 µM (inactive) | 11.2 µM (inactive) | 2.59 µM (inactive) | 2.16 µM (inactive) | 3.19 µM (inactive) | 13.7 µM (inactive) | 4.06 µM (inactive) | 18.1 µM (inactive)
6 | CC(=O)O[C@H]1CC(C)(C)C(=C=C/C(C)=C/C=C/C=C/C=C(C)/C=C2C=C(/C=C/[C@@]34O[C@]3(C)C[C@@H](O)CC4(C)C)C(=O)O/2)[C@](C)(O)C1 |  | 3.85 µM (inactive) | 4.38 µM (inactive) | 5.4 µM (inactive) | 3.99 µM (inactive) | 23.6 µM (inactive) | 11.7 µM (inactive) | 11.7 µM (inactive) | 20.7 µM (inactive) | 30.8 µM (inactive) | 10 µM (inactive) | 13.3 µM (inactive) | 12.7 µM (inactive) | 17.8 µM (inactive) | 19.3 µM (inactive) | 5.33 µM (inactive) | 4.22 µM (inactive) | 10 µM (inactive) | 13.5 µM (inactive)
7 | O=C(NCCc1ccccc1)c1cc(/C=C/c2cc(O)ccc2O)ccc1O | 13 µM (inactive) | 2.52 µM (inactive) | 1.82 µM (inactive) | 6.05 µM (inactive) | 1.64 µM (inactive) | 3.08 µM (inactive) | 4.92 µM (inactive) | 5.56 µM (inactive) | 10.1 µM (inactive) | 2.94 µM (inactive) | 5.57 µM (inactive) | 5.69 µM (inactive) | 2.96 µM (inactive) | 2.38 µM (inactive) | 2.2 µM (inactive) | 1.81 µM (inactive) | 3.56 µM (inactive) | 2.59 µM (inactive) | 15.9 µM (inactive)
8 | COc1cc(/C=C2\CCc3cc(OC)c(OC)cc3C2=O)cc(OC)c1 | 14.2 µM (inactive) | 12.8 µM (inactive) | 12.8 µM (inactive) | 4.88 µM (inactive) | 5.93 µM (inactive) | 15.8 µM (inactive) | 5 µM (inactive) | 5.47 µM (inactive) | 5.3 µM (inactive) | 8.67 µM (inactive) | 21.3 µM (inactive) | 7.94 µM (inactive) | 1.45 µM (inactive) | 5.38 µM (inactive) | 30.3 µM (inactive) | 3.81 µM (inactive) | 8.55 µM (inactive) | 3.03 µM (inactive) | 3.92 µM (inactive)
9 | CC1(C)COC(c2cccc(C(O)c3ccc(Cl)cc3)c2)=N1 (stereo unspecified) | 26.4 µM (inactive) | 12.1 µM (inactive) | 27.2 µM (inactive) | 43.7 µM (inactive) | 31.8 µM (inactive) | 29.2 µM (inactive) | 26.9 µM (inactive) | 19.9 µM (inactive) | 23.8 µM (inactive) | 42.3 µM (inactive) | 2.94 µM (inactive) | 30.1 µM (inactive) | 24.8 µM (inactive) | 19.4 µM (inactive) | 33.7 µM (inactive) | 18.1 µM (inactive) | 16.6 µM (inactive) | 23.4 µM (inactive) | 
10 | CCOc1ccc2nc(NC(=O)C(=O)C(c3cnc4ccccc4n3)[N+](=O)[O-])sc2c1 (stereo unspecified) | > 100 µM (inactive) | 53.1 µM (inactive) | 61.5 µM (inactive) | > 100 µM (inactive) | 45.4 µM (inactive) |  | > 100 µM (inactive) | > 100 µM (inactive) | > 100 µM (inactive) | > 100 µM (inactive) | > 100 µM (inactive) | > 100 µM (inactive) | > 100 µM (inactive) | > 100 µM (inactive) | 43.8 µM (inactive) | > 100 µM (inactive) | > 100 µM (inactive) | 98.2 µM (inactive) | > 100 µM (inactive)
11 | O=c1oc2ccccc2cc1-c1nc2ccccc2s1 | 10.1 µM (inactive) |  | 2.79 µM (inactive) | 6.89 µM (inactive) | 6.47 µM (inactive) | 21.2 µM (inactive) |  | 16.5 µM (inactive) | 37.2 µM (inactive) | 4.92 µM (inactive) | 6.3 µM (inactive) | 6.14 µM (inactive) | 15.2 µM (inactive) | 2.89 µM (inactive) | 3.51 µM (inactive) | 5.08 µM (inactive) | 17.2 µM (inactive) | 3.61 µM (inactive) | 8.57 µM (inactive)
